Results as given in patent publication US20230295116A1, “PROTEASOME ENHANCERS AND USES THEREOF” (Board of Trustees of Michigan State University, priority 2020, published 2023).

Experiments:
[1] = target: T1, human constitutive 20S proteasome (Homo sapiens, UniProt P25787+P60900); assay: Fluorogenic peptide degradation 20S proteasome activity assay; type: biochemical; settings: for AC200 (doubling of 20S activity): combination of the three fluorogenic peptide substrates (CT-L, T-L, Casp-L)
T1 construct: purchased Boston Biochem, Inc. (Cambridge, MA)
Excerpt: These substrates were a chymotryptic-like (CT-L), a trypsin-like (T-L) and a caspase-like (Casp-L) substrate, one for each of the catalytic sites of the proteasome. It has been shown that the proteasome’s active sites allosterically regulate each other in the presence of their individual substrates. Therefore, a combination of the three probes to represent the overall activity of a 20S activator more accurately in a system in which all catalytic sites are interacting.
The 20S activity of astemizoles and N-acylastemizole (compound 2) was further assessed in the fluorogenic peptide assay, using each of the individual substrates as well as the combination of the three (FIG. 1B). […] The N-acylated analog achieved similar max fold increases for each substrate/combination (>800% increase over vehicle).
Activity assays were carried out in a 100 µL reaction volume. Different concentrations (1-80 µM) of test compounds were added to a black flat/clear bottom 96-well plate containing 1 nM of human constitutive 20S proteasome, in 50 mM Tris-HCl at pH 7.8, 100 mM NaCl and allowed to incubate for 15 min at 37° C. Fluorogenic substrates were then added and the enzymatic activity measured at 37° C. on a SpectraMax M5e spectrometer by measuring the change in fluorescence unit per minute for 1 hour at 380-460 nm. The fluorescence units for the vehicle control were set at a 100%, and the ratio of drug-treated sample set to that of vehicle control was used to calculate the fold change in enzymatic activity. The fluorogenic substrates used were one of the following: Suc-LLVY-AMC (CT-L activity, 20 µM), Z-LLE-AMC (Casp-L activity, 20 µM), Boc-LRR-AMC (T-L activity, 40 µM) or a combination of the three substrates each at 6.67 µM.

NF-kB transcription = assay: NF-κB reporter assay (luciferase); type: cell-based; settings: Homo sapiens; HCT-116 NF-kappaB-luc reporter cells, TNF-alpha 2 ng/mL, 16 hours, n=3; read-out: EC50 for inhibition of NF-kB transcription
Experimental: (§1) Firefly luminescence was measured using the One-Step Luciferase Assay System from BPS Biosciences.

[2] = tested on: MYC-mediated gene transcription; assay: Myc reporter assay (luciferase); type: cell-based; settings: Homo sapiens, HCT-116; HCT116 Myc-Luc reporter cells, 16 hours, n=3; read-out: EC50 for inhibition of c-MYC
Experimental: as §1, §1

activation of catalytic sites of the 20S proteasome ([1]; CT-L, T-L and Casp-L substrates)	AC200 (doubling of 20S activity) [1] [µM]	EC50 (NF-kB transcription) [µM]	EC50 [2] [µM]	max fold increase (increase over vehicle) ([1]; each substrate/combination) [%]	SMILES
activates all three catalytic sites	3.3	–	–	–	COc1ccc(CCN2CCC(Nc3nc4ccccc4n3Cc3ccc(F)cc3)CC2)cc1 [Compound 1, astemizole, reference compound]
–	3.9	18	19	> 800	COc1ccc(CC(=O)N2CCC(Nc3nc4ccccc4n3Cc3ccc(F)cc3)CC2)cc1 [Compound 2, 1-(4-((1-(4-fluorobenzyl)-1H-benzo[d]imidazol-2-yl)amino)piperidin-1-yl)-2-(4-methoxyphenyl)ethan-1-one]
